{
  "source": "patent US20030190368A1",
  "about": "“METHODS OF DIAGNOSIS AND TRIAGE USING CELL ACTIVATION MEASURES” (priority 1998, published 2003)",
  "molecules": {"B1": {"name": "trypsinogen: trypsin precursor from bovine pancreas (protein, UniProt P00760 18-246, looked up)", "pro-form": "VDDDDKIVGGYTCGANTVPYQVSLNSGYHFCGGSLINSQWVVSAAHCYKSGIQVRLGEDNINVVEGNEQFISASKSIVHPSYNSNTLNNDIMLIKLKSAASLNSRVASISLPTSCASAGTQCLISGWGNTKSSGTSYPDVLKCLKAPILSDSSCKSAYPGQITSNMFCAGYLEGGKDSCQGDSGGPVVCSGKLQGIVSWGSGCAQKNKPGVYTKVCNYVSWIKQTIASN", "modifications": "pro-form", "notes": "trypsin precursor from bovine pancreas"}, "B2": {"name": "trypsin: serine protease, Type 11-S from porcine pancreas (protein, UniProt P00761 9-231, looked up)", "Trypsin": "IVGGYTCAANSIPYQVSLNSGSHFCGGSLINSQWVVSAAHCYKSRIQVRLGEHNIDVLEGNEQFINAAKIITHPNFNGNTLDNDIMLIKLSSPATLNSRVATVSLPRSCAAAGTECLISGWGNTKSSGSSYPSLLQCLKAPVLSDSSCKSSYPGQITGNMICVGFLEGGKDSCQGDSGGPVVCNGQLQGIVSWGYGCAQKNKPGVYTKVCNYVNWIQQTIAAN"}},
  "format_in_all_cases": "cell-based",
  "key": {"human neutrophils [1]": {"tested_on": "human neutrophils", "assay": "Lucigenin-enhanced superoxide chemiluminescence of human plasma / isolated neutrophils", "conditions": "for superoxide chemiluminescence of isolated neutrophils alone (no plasma): neutrophils in PBS, fMLP 10^-6 M, PAF 10^-6, homogenate 1 ml; for chemiluminescence in cell-free plasma: plasma filtered 1 um; for plasma chemiluminescence activation by pancreatic proteases: trypsin 1000 U/ml, chymotrypsin 100 U/ml, 155×10^3 neutrophils/ml plasma", "protocol": "Human blood was collected in heparinized Vacutainer tubes (10 ml) and centrifuged at 500 G for 10 minutes. Plasma was collected and 3 ml were mixed with lucigenin (N,N′-dimethyl-9,9′-bisacridinium […]) (Sigma Chemical CO., St. Louis, Mo.) (1 ml of a 1 mM stock solution in deinozed water, final concentration […], near optimal concentration as determined by Ohoi, et al (26)) for each measurement in small petri dishes (60 mm diameter). In later modifications of the test, a 25 mm diameter polyurethane disk was placed inside the petri dishes to reduce the vessel diameter, and subsequently, the reagent requirements to 1 ml plasma mixed with 0.75 ml lucigenin (1 mM stock solution) and only 100 μl of an activator. […] Six Vacutainer tubes were normally collected from healthy volunteers. This volume gives approximately 8 measurements using the original configuration (3 ml plasma/measurement) and up to 25 measurements with the modified system (1 ml/measurement). When measuring whole blood samples, 3 ml of whole blood were subsitituted for 3 ml of plasma.\nA standard neutrophil isolation procedure was used as described in Example 2 or pseudopod formation tests. Human blood from healthy volunteers (approximately 60 ml) was collected in heparinized Vacutainer tubes and transferred to a 60 ml syringe where it was sedimented on ice for 40-60 minutes. It is important that heparin and not EDTA ([…]) be used as an antocoagulant, since the calcium-chelating properties of EDTA can suppress neutrophil activation. The neutrophil-rich plasma layer was collected and layered onto 3.5 ml Histopaque (Sigma Diagnostics, St. Louis, Mo.) in 12 ml polypropylene centrifuge tubes (17×100 mm, Falcon, Shrewsbury, Mass.) and centrifuged at 600 G for 20 minutes. The sedimented neutrophils and red blood cells were then gently resuspended in 2 ml PBS (phosphate buffer solution). The resuspeneded cells were carefully layered onto 2.5 ml of a 55% isotonic Percoll solution (Sigma Diagnostics, St. Louis, Mo.) and 2.5 ml of a 74% isotonic Percoll solution in deionized water. This suspension was centrifuged at 600 G for 15 minutes and the middle granulyte layer was removed and resuspended in PBS to achieve a concentration of 10^6 neutrophils/ml.\nFor standard plasma measurements (e.g., low molecular weight fractions and whole pancreatic homogenates) human blood from healthy volunteers (approximately 60 ml) was collected in heparinized Vacutainer tubes and centrifuged for 10 minutes at 500 g. The plasma layer, including the buffy coat was carefully decanted using a steril transfer pipette. This fraction was then warmed to room temperature and plasma measurements were obtained. Plasma was diluted with sterile saline to achieve a plasma neutrophil concentration of 120×10^3 neutrophil/ml.\nFor experiments with different plasma concentrations versus neotrophil activators, measurements were made using isolated neutrophils, isolated neutrophils in 10% and 30% autologous plasma, and neutrophil-free plasma (filtered with 1 um filter and verified by cell count).\nCell-free plasma was obtained by filtering sedimented plasma through a 1 um filter (Whatman 6780-2510, Swedesboro, N.J.). The filtered plasma was visually verified to be cell free by placing an aliquot on a microscope slide and examining in detail at 400×. For experiments with different percentages of added plasma, 5 ml total volumes were made consisting of 1 ml lucigenin (1 mM), 1 ml activator, and either 3 ml suspended neutrophils, 2 ml suspended neutrophils plus 1 ml cell-free plasma mixed in PBS necessary for either 10% or 30% total plasma concentration, or 3 ml cell-free plasma. Activators (1 ml) were added via an injection port to the mixture at time t=0 seconds. […]"}, "[2]": {"tested_on": "isolated naive human neutrophils", "assay": "Pseudopod formation test: neutrophil activation by organ homogenates, fractions and proteases", "conditions": "for percent pseudopod formation, control solution incubated with the additive alone (no organ homogenate): Krebs-Henseleit control incubated with additive at the same concentration, control activation 10.5±2.5%; for direct neutrophil activation by proteases / zymogen fragments (in words): pseudopod formation", "protocol": "(§1) For the pseudopod assay, venous blood is collected in heparinized tubes from healthy human volunteers and put on ice. It is important that heparin and not EDTA ([…]) be used as an anticoagulant, as the calcium-chelating properties of EDTA can affect neutrophil activation. […] Other chemicals for the Krebs-Henseleit buffer are from Fisher Scientific, Fair Lawn, N.J. The resuspended cells are then gently layered onto 2.5 ml of a 55% isotonic Percoll (Sigmal Chemical Company) solution and 2.5 ml of a 74% isotonic Percoll solution in deionized water. The suspension is centrifuged for 15 minutes at 600 G and the middle granulocyte layer is removed and resuspended in PBS to achieve a concentration of 10^6 neutrophils/ml. 100 μl aliquots of suspended neutrophils are added to 100 μl of test plasma or activating agent. This mixture is mixed and then incubated for 10 minutes at 27° C. After incubation 100 μl of 3% glutaraldehyde (Fisher Scientific) is added to stop the reaction. 100 μl of crystal violet in phosphate (pH: 7.4) buffer is then added to stain leukocyte nuclei on wet mount preparations. Freely suspended neutrophils with pseudopodia are identified by their segmented nuclei and the presence of cytoplasmic granules. One hundred neutrophils are counted. Cells with pseudopod projection greater than about 1 um are considered positive.\nThe organ homogenization procedure was similar to the method of Lefer (Glenn et al. (1971) Circ Res 29:338-349, Lefer (1973) Am J. Physiol 224:824-831). Male Wistar rats (250-350 gm) were housed in a controlled environment and maintained on standard pellet diet for at least three days before initiation of experimental procedures. Animals were cannulated via the femoral arteries and vein under general anesthesia using phenobarbital (50 mg/kg i.m.) No heparin was injected other than that needed to ensure open catheter lines (10 U/ml plasma-Lyte). A central incision was made over the abdomen. The rats were exsanguinated and the heart, liver, spleen, small intestine, and pancreas were removed. In two animals a kidney and adrenal gland were removed as well. They were immediately washed and cleaned in cold 0.25 M sucrose solution. The cleaned organs were vigorously homogenized in Krebs-Henseleit solution (1:3 w/v). Homogenate was then further diluted in Krebs-Henseleit solution (1:2 v/v). Aliquots were filtered by centrifugation at 500 G for 10 min and a sample aliquot was stored at 4° C. until assayed. The other fraction was incubated for 2.5 hours at 38° C. with mild stirring and stored at 4° C. until assayed. Incubation of tissue homogenates for this time period at a moderate temperature enhances any enzymatic activity that may be necessary in order to produce a neutrophil activation product. The incubated and non-incubated organ homogenates as well as controls were tested against naive human donor leukocytes for pseudopod formation tests and on whole rat donor blood for the NBT assay. Pseudopod determination was carried out as described in Example 2 using isolated neutrophils in D-PAS combined with homogenate in a 4:1 ratio. Nitroblue tetrazolium reduction by leukocytes due to superoxide in rat homogenate assays was also tested using the NBT procedure described in Example 2, with the application of 25 μl of homogenate to donor blood. The NBT assays for porcine homogenate activity were measured using the slightly modified NBT protocol with the crystal violet stain, also detailed in Example 2. […]"}, "human neutrophils [3]": {"tested_on": "human neutrophils", "assay": "Neutrophil PAF inhibition experiments (pseudopod formation)"}, "[4]": {"tested_on": "isolated naive human neutrophils", "assay": "Pseudopod formation test: protease inhibitors against pancreatic homogenate-induced neutrophil activation", "conditions": "for percent neutrophil pseudopod formation (activation) by rat pancreatic homogenate in presence of protease inhibitor: neutrophils preincubated 10 min with inhibitor (PMSF 1 mM; Complete 1 tablet/20 ml; Benzamidine 1150 μM; Futhan 0.1 mg/ml; aprotinin 20 μM), then homogenate 10 min, homogenate alone 85.1±11.5%", "protocol": "as §1\nRat homogenate was collected as described in detail in Example 5. Briefly, male Wistar rats (250-350 gm) were housed in a controlled environment and maintained on a standard pellet diet for at least three days before initiation of experimental procedures. Animals were cannulated via the femoral arteries and vein under general anesthesia using pentobarbital (50 mg/kg i.m.). The rats were exsanguinated and the heart, liver, spleen, small intestine, and pancreas removed. The organs were immediately washed and cleaned in cold 0.25 M sucrose solution. Then, the cleaned organs were vigorously homogenized in Krebs-Henseleit solution ([…]). Aliquots were filtered by centrifugation at 500 G for 10 min. Pancreatic homogenates were incubated for 2.5 hours at 38° C., stirred frequently. Incubated pancreatic homogenate as well as controls were tested against naive human donor neutrophils for pseudopod formation as described in Example 2.\nTo determine whether or not neutrophil activation by pancreatic homogenate is protease dependent, the pseudopod formation test was repeated by preincubation of isolated neutrophils with various protease inhibitors (50 μl) for 10 minutes followed by addition of pancreas homogenate (50 μl) and further incubation for 10 minutes. […] All protease inhibitors were the gift of Dr. Tony E. Hugli of The Scripps Clinic and Research Institute, with the exception of Complete™, an all-purpose protease inhibitor purchased from Boehringer Mannheim, Indianapolis, Ind. One of the components of Complete™ is EDTA (ethylenediaminetetra-acetic acid), a standard anti-coagulant and divalent cation chelator.\nTo determine whether the protease inhibitors were acting on the pancreatic homogenate or the neutrophils themselves, a new set of neutrophil pseudopod experiments was carried out. […] Appropriate controls were recorded as well as a positive control (10^−7 M fMLP) to determine the washed cells' ability to respond to stimuli. Formyl-methionyl-leucyl-phenylalanine (fMLP) was obtained from Sigma Chemical Company, St. Louis, Mo."}},
  "data": [
    {"molecule": "1-O-alkyl-2-acetyl-sn-glycero-3-phosphocholine [PAF]", "values": [
      {"measurement": "superoxide chemiluminescence of isolated neutrophils alone (no plasma)", "setting": "human neutrophils [1]", "result": "likewise unreactive"},
      {"measurement": "chemiluminescence in cell-free plasma", "setting": "human neutrophils [1]", "result": "unreactive"}
    ]},
    {"molecule": "chymotrypsin", "values": [
      {"measurement": "plasma chemiluminescence activation by pancreatic proteases", "setting": "human neutrophils [1]", "result": "little activation"},
      {"measurement": "percent pseudopod formation, control solution incubated with the additive alone (no organ homogenate)", "setting": "[2]", "result": 42, "unit": "%"},
      {"measurement": "direct neutrophil activation by proteases / zymogen fragments (in words)", "setting": "[2]", "result": "did not result in neutrophil activation"}
    ]},
    {"molecule": "Phospholipase A2: from bovine pancreas, also degrades PAF", "values": [
      {"measurement": "intrinsic effect on neutrophils", "setting": "human neutrophils [3]; 1, 10, 20 U/ml", "result": "neutrophil stimulatory properties"}
    ]},
    {"molecule": "aprotinin", "values": [
      {"measurement": "percent neutrophil pseudopod formation (activation) by rat pancreatic homogenate in presence of protease inhibitor", "setting": "[4]", "result": "51±17.2", "unit": "%"}
    ]},
    {"molecule": "O=S(=O)(F)Cc1ccccc1", "note": "[PMSF, Phenylmethylsulfonyl fluoride]", "values": [
      {"measurement": "percent neutrophil pseudopod formation (activation) by rat pancreatic homogenate in presence of protease inhibitor", "setting": "[4]", "result": "40.8±12.9", "unit": "%"}
    ]},
    {"molecule": "CSCC[C@H](NC=O)C(=O)N[C@@H](CC(C)C)C(=O)N[C@@H](Cc1ccccc1)C(=O)O", "note": "[fMLP, Formyl-methionyl-leucyl-phenylalanine]", "values": [
      {"measurement": "superoxide chemiluminescence of isolated neutrophils alone (no plasma)", "setting": "human neutrophils [1]", "result": "not particularly reactive"},
      {"measurement": "chemiluminescence in cell-free plasma", "setting": "human neutrophils [1]", "result": "unreactive"},
      {"measurement": "percent activation of twice-washed neutrophils by activator", "setting": "[4]; no inhibitor, pancreatic homogenate 50 μl (Control group) or fMLP 10^-7 M (positive control)", "result": 74, "unit": "%"}
    ]},
    {"molecule": "N=C(N)c1ccccc1", "note": "[Benzamidine]", "values": [
      {"measurement": "percent neutrophil pseudopod formation (activation) by rat pancreatic homogenate in presence of protease inhibitor", "setting": "[4]", "result": "41.5±24.6", "unit": "%"}
    ]},
    {"molecule": "Cc1nnc2n1-c1sc3c(c1C(c1ccccc1Cl)=NC2)CC(C(=O)N1CCOCC1)C3", "note": "(centres unmarked) [WEB 2170]", "values": [
      {"measurement": "reduction of neutrophil activation by pancreatic or trypsin-incubated homogenates", "setting": "human neutrophils [3]; 5 μM, 50 μM, 500 μM", "result": "largely ineffective"}
    ]},
    {"molecule": "B1", "values": [
      {"measurement": "direct neutrophil activation by proteases / zymogen fragments (in words)", "setting": "[2]", "result": "not stimulatory towards neutrophils"}
    ]},
    {"molecule": "B2", "values": [
      {"measurement": "plasma chemiluminescence activation by pancreatic proteases", "setting": "human neutrophils [1]", "result": "little activation"},
      {"measurement": "percent pseudopod formation, control solution incubated with the additive alone (no organ homogenate)", "setting": "[2]", "result": "8.5±0.8", "unit": "%"},
      {"measurement": "direct neutrophil activation by proteases / zymogen fragments (in words)", "setting": "[2]", "result": "did not result in neutrophil activation"}
    ]}
  ]
}
